Test results reported in US12686846B2, “Plant sweet and yeast MSF transporter capable of transporting different sugars simultaneously” (THE BOARD OF TRUSTEES OF THE UNIVERSITY OF ILLINOIS, priority 2020, dated 2026).
“Also recorded” adds a separate entry of the source.

Molecular target: T1, Lipomyces starkeyi LST1_205437 transporter, wild type, SEQ ID NO: 4 (Lipomyces starkeyi, UniProt A0A1E3QE37)
T1 construct: whole-cell 14C sugar uptake
T1 sequence (A0A1E3QE37 1-603): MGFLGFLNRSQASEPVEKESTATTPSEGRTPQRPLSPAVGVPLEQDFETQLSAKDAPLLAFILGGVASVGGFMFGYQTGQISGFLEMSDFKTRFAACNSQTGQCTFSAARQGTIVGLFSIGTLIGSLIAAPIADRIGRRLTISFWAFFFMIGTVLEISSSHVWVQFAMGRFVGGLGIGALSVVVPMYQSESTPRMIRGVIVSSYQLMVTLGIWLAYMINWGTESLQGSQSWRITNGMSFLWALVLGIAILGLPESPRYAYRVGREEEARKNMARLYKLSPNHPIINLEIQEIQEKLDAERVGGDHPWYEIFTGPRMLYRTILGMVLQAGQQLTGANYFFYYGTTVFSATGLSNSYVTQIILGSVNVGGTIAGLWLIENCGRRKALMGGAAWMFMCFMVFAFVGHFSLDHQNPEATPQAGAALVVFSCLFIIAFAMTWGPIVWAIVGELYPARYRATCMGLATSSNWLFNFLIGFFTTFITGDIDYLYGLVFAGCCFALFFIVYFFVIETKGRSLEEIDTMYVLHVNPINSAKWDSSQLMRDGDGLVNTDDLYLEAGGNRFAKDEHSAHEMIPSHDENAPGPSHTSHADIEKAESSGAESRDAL
Experiment: Inhibition of xylose uptake by glucose, SR8D8 expressing LST1_205437
Format: cell-based
Conditions: 25 mM or 100 mM glucose; in words
Protocol: Symbols: glucose (square), xylose (triangle up), DCW (circle), ethanol (triangle down), glycerol (diamond). […] Global curve fitting for Michaelis-Menten kinetics with competitive inhibition was applied to data of three independent measurements at each concentration.
SR8D8 containing the respective plasmid was grown on selective YPE medium to an OD600 of 1-1.5, harvested by centrifugation, and washed twice in ice-cold uptake buffer (100 mM potassium phosphate, pH 6.5). C14 labeled sugar uptake assay was done according to Boles and Oreb. Radioactivity was analyzed in a Beckman-Coulter LS6500 multi-purpose liquid scintillation counter (Beckman-Coulter, CA, USA).
Sugar solutions contained 0.135-0.608 μCi of D-[U-^14C]-glucose (290-300 mCi/mmol) or D-[1-^14C]-xylose (55 mCi/mmol) (PerkinElmer, MA, USA). Calculation of Km (Michaelis constant), Vmax (maximal initial uptake velocity), and K (inhibitor constant for competitive inhibition) was done by nonlinear regression analysis and global curve fitting in Prism 7 (GraphPad Software) with values of three independent measurements.

OC[C@H]1OC(O)[C@H](O)[C@@H](O)[C@@H]1O (stereo partly shown) [Glucose]
inhibition of xylose transport by glucose: less inhibited by glucose than those by ScGal2; also recorded: glucose concentration dependent inhibition of xylose transport
